These results are taken from patent US20070160725A1, “Use of extracts and compounds of allium-genus plants as preservatives in the food and agri-food industries” (MOUSALA, S., L., priority 2004, published 2007).

Common to all, as to test: agar diffusion, inhibition halo
Common to all, as to type: cell-based

The subject of assay [1] is Penicillium italicum CECT 2294. As to conditions: for zone of inhibition at 1000 ppm / zone of inhibition at 125 ppm / zone of inhibition at 250 ppm / zone of inhibition at 500 ppm / zone of inhibition at 4000 ppm / zone of inhibition at 6000 ppm: Penicillium italicum; for zone of inhibition at 1000 ppm / zone of inhibition at 125 ppm / zone of inhibition at 250 ppm / zone of inhibition at 500 ppm: CECT2294, read-out: inhibition halo diameter; for zone of inhibition at 4000 ppm / zone of inhibition at 6000 ppm: CECT2294, read-out: inhibition halo diameter. On the procedure:
(§1) In order to evaluate the antimicrobial activity the agar diffusion technique with cellulose discs of 6 mm in diameter impregnated with the different active ingredient testing doses was used.
(§2) Antifungal capacity was assessed against suspensions of […], harvested from pure cultures of the selected molds and against suspensions of 10^7 cells/ml for the case of yeasts. The culture medium used was the 2% Sabouraud-glucose medium (Merck).
(§3) After incubating the culture dishes inoculated with the different organisms at the corresponding temperatures, the microbial inhibition halos that appeared were measured, and said measurement includes the 6 mm diameter of the cellulose discs.

Assay [2] deals with Mucor plumbeus, isolated from cheese. To be noted: 1000 ppm. How it is done: as §1, §2, §3
In assay [3] the test system is Staphylococcus aureus, isolated from hamburgers. As to conditions: 1000 ppm. On the procedure:
as §1
(§4) Antibacterial capacity was assessed against suspensions of 10^6 cells/ml, prepared from pure young cultures of each one of the strains to be tested. The culture medium used was Müller-Hinton medium (Merck).
as §3

Assay [4] deals with Salmonella typhimurium, ATCC 13311. As to conditions: 1000 ppm. On the procedure: as §1, §4, §3
Assay [5] relates to Bacillus subtilis, isolated from paprika. On the procedure: as §1, §4, §3
Assay [6] concerns Candida krusei, isolated from cheese. On the procedure:
as §1, §2, §3

The subject of assay [7] is Geotrichum candidum CECT 1902. On the procedure:
as §1, §2, §3

The subject of assay [8] is Aspergillus niger, CECT 2700. On the procedure: as §1, §2, §3
Assay [9] deals with Penicillium sp, isolated from cheese. How it is done:
as §1, §2, §3

The subject of assay [10] is Aspergillus terreus, isolated from the environment of the cheese maturation chamber. On the procedure:
as §1, §2, §3

Assay [11] concerns Escherichia coli, CECT 515. How it is done:
as §1, §4, §3

In assay [12] the test system is Bacillus cereus, CECT 1178. How it is done:
as §1, §4, §3

Assay [13] relates to Listeria monocytogenes, ATCC 15313. On the procedure:
as §1, §4, §3

The subject of assay [14] is Trichoderma aureoviride CECT 20102. How it is done:
as §1, §2, §3

The subject of assay [15] is Rhizopus stolonifer CECT 2344. On the procedure: as §1, §2, §3
[16] abbreviates: 4000 ppm (active ingredient, dose in ppm).
Where [17] appears, read: 6000 ppm (active ingredient, dose in ppm).
Setting [18] is: 1000 ppm (active ingredient, dose in ppm).
[19] abbreviates: 2000 ppm (active ingredient, dose in ppm).

As to `CCCCS[S+]([O-])CCCC` (stereo not shown) [BTS, n-butyl n-butyl thiosulfinate], the zone of inhibition at 1000 ppm in [1] stood at 67 mm. The inhibition halo diameter in [2] is reported as 17 mm; in assay [3] it was 45 mm; in assay [4], 20 mm; in [5] (1000 ppm), 60 mm.

In the case of `C=CC1SC=CCS1` (stereo not shown) [2-vinyl-4H-1,3-dithiin], the inhibition halo diameter was 7 mm in [6] (125 ppm); 10 mm in assay [6] (250 ppm); 10 mm in assay [6] (500 ppm); 12 mm in assay [6] (1000 ppm); 7 mm in assay [7] (125 ppm); 7 mm in [7] (250 ppm). Besides, the inhibition halo diameter in assay [7] (500 ppm) was 10 mm; in assay [7] (1000 ppm), 15 mm; in assay [8] (125 ppm), 7 mm; in assay [8] (250 ppm) it was 7 mm; in assay [8] (500 ppm), 10 mm; in assay [8] (1000 ppm), 15 mm. The inhibition halo diameter in assay [9] (125 ppm) is 0 mm; in assay [9] (250 ppm), 8 mm; in [9] (500 ppm), 10 mm; in assay [9] (1000 ppm) it was 12 mm; in assay [10] (125 ppm), 0 mm; in assay [10] (250 ppm), 0 mm. Besides, the inhibition halo diameter in assay [10] (500 ppm) came out at 6 mm; in assay [10] (1000 ppm), 7 mm; in assay [11] (125 ppm), 0 mm; in assay [11] (250 ppm) it was 0 mm; in assay [11] (500 ppm), 0 mm; in [11] (1000 ppm), 0 mm. Moreover, the inhibition halo diameter in assay [12] (125 ppm) turned out to be 7 mm; in assay [12] (250 ppm), 9 mm; in assay [12] (500 ppm), 10 mm; in assay [12] (1000 ppm), 12 mm; in assay [5] (125 ppm), 7 mm; in assay [5] (250 ppm), 10 mm. Besides, the inhibition halo diameter was found to be 13 mm in [5] (500 ppm); 15 mm in assay [5] (1000 ppm); 0 mm in assay [13] (125 ppm); 7 mm in assay [13] (250 ppm); 8 mm in [13] (500 ppm); 10 mm in assay [13] (1000 ppm). Also, the zone of inhibition at 125 ppm in assay [1] came out at 0 mm. In assay [1], the zone of inhibition at 250 ppm came to 0 mm. In addition, the zone of inhibition at 500 ppm in assay [1] was 8 mm. Also, in [1], the zone of inhibition at 1000 ppm is 10 mm.

In the case of `C=CCSSC=CC[S+]([O-])CC=C` (mixture of isomers) [Ajoene, (E)-(Z)-ajoene], the inhibition halo diameter in assay [6] (125 ppm) was determined as 26 mm; in [6] (250 ppm), 32 mm; in assay [6] (500 ppm), 38 mm; in assay [6] (1000 ppm), 42 mm; in assay [7] (125 ppm) it was 14 mm; in assay [7] (250 ppm), 20 mm. Further, the inhibition halo diameter is 26 mm in assay [7] (500 ppm); 34 mm in [7] (1000 ppm); 11 mm in [8] (125 ppm); 13 mm in assay [8] (250 ppm); 24 mm in assay [8] (500 ppm); 27 mm in assay [8] (1000 ppm). For the same compound, the inhibition halo diameter in assay [9] (125 ppm) amounted to 12 mm; in assay [9] (250 ppm), 27 mm; in [9] (500 ppm), 40 mm; in assay [9] (1000 ppm) it was 40 mm; in assay [10] (125 ppm), 18 mm; in [10] (250 ppm) it was 21 mm. For the same compound, the inhibition halo diameter was determined as 32 mm in assay [10] (500 ppm); 40 mm in assay [10] (1000 ppm); 7 mm in assay [11] (125 ppm); 9 mm in assay [11] (250 ppm); 11 mm in assay [11] (500 ppm); 13 mm in [11] (1000 ppm). In addition, the inhibition halo diameter is 18 mm in [12] (125 ppm); 24 mm in assay [12] (250 ppm); 30 mm in assay [12] (500 ppm); 36 mm in assay [12] (1000 ppm); 36 mm in assay [5] (125 ppm); 40 mm in assay [5] (250 ppm). Also, the inhibition halo diameter in [5] (500 ppm) worked out at 54 mm; in assay [5] (1000 ppm) it was 62 mm; in assay [13] (125 ppm) it was 16 mm; in assay [13] (250 ppm) it was 18 mm; in assay [13] (500 ppm), 20 mm; in [13] (1000 ppm) it was 30 mm. Besides, the zone of inhibition at 125 ppm in assay [1] was 18 mm. Also, the zone of inhibition at 250 ppm in assay [1] turned out to be 24 mm. For the same compound, the zone of inhibition at 500 ppm in [1] worked out at 44 mm. Besides, the zone of inhibition at 1000 ppm in assay [1] amounted to 50 mm.

As to `C=CC1CC=CSS1` (stereo not shown) [3-vinyl-4H-1,2-dithiin], the inhibition halo diameter in assay [6] (125 ppm) was determined as 0 mm; in [6] (250 ppm), 7 mm; in assay [6] (500 ppm), 8 mm; in [6] (1000 ppm) it was 10 mm; in assay [7] (125 ppm), 0 mm; in assay [7] (250 ppm), 0 mm. For the same compound, the inhibition halo diameter in assay [7] (500 ppm) is recorded as 0 mm; in assay [7] (1000 ppm), 0 mm; in [8] (125 ppm), 0 mm; in [8] (250 ppm) it was 7 mm; in assay [8] (500 ppm) it was 10 mm; in assay [8] (1000 ppm), 14 mm. Besides, the inhibition halo diameter in assay [9] (125 ppm) is recorded as 0 mm; in [9] (250 ppm), 6 mm; in assay [9] (500 ppm), 7 mm; in assay [9] (1000 ppm), 10 mm; in assay [10] (125 ppm), 0 mm; in assay [10] (250 ppm), 0 mm. The inhibition halo diameter in assay [10] (500 ppm), in assay [10] (1000 ppm), in assay [11] (125 ppm), in assay [11] (250 ppm), in [11] (500 ppm) and in assay [11] (1000 ppm) was 0 mm throughout. Moreover, the inhibition halo diameter in assay [12] (125 ppm) is 7 mm; in assay [12] (250 ppm), 8 mm; in assay [12] (500 ppm), 8 mm; in [12] (1000 ppm), 10 mm; in [5] (125 ppm), 8 mm; in [5] (250 ppm) it was 9 mm. The inhibition halo diameter in assay [5] (500 ppm) is given as 10 mm; in [5] (1000 ppm) it was 12 mm; in assay [13] (125 ppm), 0 mm; in assay [13] (250 ppm), 0 mm; in assay [13] (500 ppm) it was 0 mm; in [13] (1000 ppm), 0 mm. Further, the zone of inhibition at 125 ppm in [1] is 0 mm. Moreover, the zone of inhibition at 250 ppm in assay [1] was 0 mm. For the same compound, in assay [1], the zone of inhibition at 500 ppm was 0 mm. Besides, the zone of inhibition at 1000 ppm in assay [1] is 0 mm.

On to `c1ccc(-c2ccccc2)cc1` [Biphenyl], for which the inhibition halo diameter in assay [14] (setting [16]), in assay [14] (setting [17]), in assay [7] (setting [16]), in assay [7] (setting [17]), in [15] (setting [16]) and in assay [15] (setting [17]) was 0 mm each time. For the same compound, the zone of inhibition at 4000 ppm in assay [1] was 7 mm. Further, the zone of inhibition at 6000 ppm in [1] is 8 mm.

For `[Na+].[O-]c1ccccc1-c1ccccc1` [30% Na o-phenylphenate, Na o-phenylphenate], the inhibition halo diameter in assay [14] (setting [18]) worked out at 0 mm; in assay [14] (setting [19]), 10 mm; in [14] (setting [16]) it was 20 mm; in assay [14] (setting [17]), 35 mm; in assay [7] (setting [18]), 7 mm; in assay [7] (setting [19]), 30 mm. The inhibition halo diameter in assay [7] (setting [16]) came out at 35 mm; in [7] (setting [17]), 40 mm; in [1] (setting [18]), 20 mm; in assay [1] (setting [19]) it was 30 mm; in [1] (setting [16]) it was 33 mm; in assay [1] (setting [17]), 53 mm. Further, the inhibition halo diameter in [15] (setting [18]), in assay [15] (setting [19]), in assay [15] (setting [16]) and in [15] (setting [17]) was 0 mm each time.

With `Oc1ccccc1-c1ccccc1` [o-Phenyl phenol], the inhibition halo diameter is reported as 40 mm in assay [14] (setting [16]); 42 mm in assay [14] (setting [17]); 45 mm in [7] (setting [16]); 47 mm in [7] (setting [17]); 14 mm in assay [15] (setting [16]); 15 mm in assay [15] (setting [17]). Moreover, the zone of inhibition at 4000 ppm in [1] was found to be 45 mm. Further, the zone of inhibition at 6000 ppm in assay [1] turned out to be 45 mm.
